Measured values: the supplement of paper PMC10307832

The cell lines below were run with CC(C)CCN1c2nc(Nc3cc(F)c(O)c(F)c3)ncc2N(C)C(=O)C1C [BI-D1870] + Cc1nc(Nc2ncc(C(=O)Nc3c(C)cccc3Cl)s2)cc(N2CCN(CCO)CC2)n1 [Dasatinib] (partner 0.075 µM) (assay: relative viability (nuclei count vs DMSO), 5 days (fraction); higher = more cells survive). Settings: first compound 0.04 µM.
Outline: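 Relative viability was taken as the ratio of nuclei in treated wells to nuclei in vehicle wells. Lung cancer cell lines in 1536-well plates received compounds by pin tool one day after seeding, either one drug alone or a fixed anchor-drug dose plus five library-drug doses (not always all listed) in √10 steps. Nuclei were counted on 4× images after 5 days of treatment, and values are medians of duplicate plates.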

Cell Line | relative viability
NCI-H2405 | 0.253
HOP-62 | 0.707
NCI-H522 | 0.91
LU99A | 0.753
BEN | 0.291
HARA | 0.195
SW 900 | 0.66
NCI-H322M | 0.236
LCLC-97TM1 | 0.932
NCI-H2009 | 0.325
A-427 | 0.775
NCI-H441 | 0.763
NCI-H661 | 1.04
NCI-H1734 | 0.464
NCI-H460 | 0.594
NCI-H2347 | 0.345

Cell Line | relative viability
SK-LU-1 | 0.18
NCI-H1395 | 0.471
201T | 0.59
NCI-H1915 | 0.356
HCC-827 | 0.383
LXF-289 | 0.254
NCI-H23 | 0.923
NCI-H647 | 0.184
CAL-12T | 0.489
NCI-H1651 | 0.405
EPLC-272H | 0.414
NCI-H2228 | 0.543
NCI-H1355 | 0.886
NCI-H3122 | 0.845
NCI-H1437 | 0.46
NCI-H1755 | 0.511

Same assay, conditions: first compound 0.1265 µM

Cell Line | relative viability
NCI-H2405 | 0.19
HOP-62 | 0.675
NCI-H522 | 0.874
LU99A | 0.51
BEN | 0.293
HARA | 0.195
SW 900 | 0.456
NCI-H322M | 0.27
LCLC-97TM1 | 0.833
NCI-H2009 | 0.212
A-427 | 0.593
NCI-H441 | 0.544
NCI-H661 | 0.867
NCI-H1734 | 0.455
NCI-H460 | 0.377
NCI-H2347 | 0.319

Cell Line | relative viability
SK-LU-1 | 0.165
NCI-H1395 | 0.432
201T | 0.569
NCI-H1915 | 0.276
HCC-827 | 0.373
LXF-289 | 0.239
NCI-H23 | 0.741
NCI-H647 | 0.113
CAL-12T | 0.272
NCI-H1651 | 0.293
EPLC-272H | 0.38
NCI-H2228 | 0.403
NCI-H1355 | 0.726
NCI-H3122 | 0.744
NCI-H1437 | 0.343
NCI-H1755 | 0.408

Same assay, conditions: first compound 0.4 µM

Cell Line | relative viability
NCI-H2405 | 0.218
HOP-62 | 0.603
NCI-H522 | 0.777
LU99A | 0.512
BEN | 0.349
HARA | 0.233
SW 900 | 0.662
NCI-H322M | 0.234
LCLC-97TM1 | 0.947
NCI-H2009 | 0.304
A-427 | 0.706
NCI-H441 | 0.575
NCI-H661 | 0.874
NCI-H1734 | 0.436
NCI-H460 | 0.528
NCI-H2347 | 0.332

Cell Line | relative viability
SK-LU-1 | 0.132
NCI-H1395 | 0.428
201T | 0.571
NCI-H1915 | 0.294
HCC-827 | 0.321
LXF-289 | 0.216
NCI-H23 | 0.692
NCI-H647 | 0.243
CAL-12T | 0.411
NCI-H1651 | 0.345
EPLC-272H | 0.338
NCI-H2228 | 0.553
NCI-H1355 | 0.767
NCI-H3122 | 0.834
NCI-H1437 | 0.413
NCI-H1755 | 0.407

Same assay, conditions: first compound 1.265 µM

Cell Line | relative viability
NCI-H2405 | 0.215
HOP-62 | 0.66
NCI-H522 | 0.99
LU99A | 0.467
BEN | 0.38
HARA | 0.282
SW 900 | 0.499
NCI-H322M | 0.234
LCLC-97TM1 | 0.899
NCI-H2009 | 0.248
A-427 | 0.756
NCI-H441 | 0.651
NCI-H661 | 0.898
NCI-H1734 | 0.471
NCI-H460 | 0.507
NCI-H2347 | 0.306

Cell Line | relative viability
SK-LU-1 | 0.229
NCI-H1395 | 0.359
201T | 0.548
NCI-H1915 | 0.274
HCC-827 | 0.412
LXF-289 | 0.223
NCI-H23 | 0.588
NCI-H647 | 0.23
CAL-12T | 0.512
NCI-H1651 | 0.297
EPLC-272H | 0.364
NCI-H2228 | 0.544
NCI-H1355 | 0.838
NCI-H3122 | 0.955
NCI-H1437 | 0.394
NCI-H1755 | 0.567

Same assay, conditions: first compound 4 µM

Cell Line | relative viability
NCI-H2405 | 0.219
HOP-62 | 0.524
NCI-H522 | 0.926
LU99A | 0.425
BEN | 0.304
HARA | 0.302
SW 900 | 0.338
NCI-H322M | 0.283
LCLC-97TM1 | 0.709
NCI-H2009 | 0.141
A-427 | 0.793
NCI-H441 | 0.671
NCI-H661 | 0.708
NCI-H1734 | 0.484
NCI-H460 | 0.242
NCI-H2347 | 0.297

Cell Line | relative viability
SK-LU-1 | 0.153
NCI-H1395 | 0.384
201T | 0.544
NCI-H1915 | 0.261
HCC-827 | 0.26
LXF-289 | 0.244
NCI-H23 | 0.579
NCI-H647 | 0.208
CAL-12T | 0.176
NCI-H1651 | 0.237
EPLC-272H | 0.32
NCI-H2228 | 0.337
NCI-H1355 | 0.674
NCI-H3122 | 0.92
NCI-H1437 | 0.285
NCI-H1755 | 0.442
